Assay results as given in PubChem BioAssay AID212 (DTP/NCI, 2004).
Values joined by “and” are separate entries in the source; they are usually repeats but may differ in a detail not shown here. Equal values may be shown once. Records with an inconclusive call do not appear.

System: BDF1 mice, colon carcinoma 38 sc, T/C %
Experiment: NCI In Vivo Anticancer Drug Screen. Data for tumor model Colon Carcinoma 38 (subcutaneous) in B6D2F1 (BDF1) mice
Settings: endpoint: median tumor weight (est.), higher = larger tumour
Method in brief: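 Transplantable tumor in mice; compound-treated vs vehicle-dosed controls. Measured survival or tumor size; value = T ÷ C.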

[1] = dose: 50.0 mg/kg/injection, schedule: Q07DX003 (ip), vehicle: Klucel (hydroxypropylcellulose) (HPC)

Cc1c2ccncc2c(C)c2c1[nH]c1ccccc12
T/C (dose: 10.0 mg/kg/injection, schedule: Q07DX002 (ip), vehicle: distilled water + Tween-80): 63 % of control | T/C (dose: 12.5 mg/kg/injection, schedule: Q07DX002 (ip), vehicle: Klucel (hydroxypropylcellulose) (HPC)): 54 % of control and 75 % of control | T/C (dose: 12.5 mg/kg/injection, schedule: Q07DX003 (ip), vehicle: saline with Tween-80): 42 % of control | T/C (dose: 12.5 mg/kg/injection, schedule: Q07DX003 (ip), vehicle: saline): 78 % of control | T/C (dose: 20.0 mg/kg/injection, schedule: Q07DX002 (ip), vehicle: distilled water + Tween-80): 83 % of control and 103 % of control | T/C (dose: 20.0 mg/kg/injection, schedule: Q07DX002 (ip), vehicle: water): 61 % of control | T/C (dose: 25.0 mg/kg/injection, schedule: Q07DX003 (ip), vehicle: saline with Tween-80): 38 % of control | T/C (dose: 25.0 mg/kg/injection, schedule: Q07DX003 (ip), vehicle: saline): 69 % of control | T/C (dose: 40.0 mg/kg/injection, schedule: Q07DX002 (ip), vehicle: water): 9 % of control | T/C [1]: 45 % of control and 55 % of control | T/C (dose: 50.0 mg/kg/injection, schedule: Q07DX003 (ip), vehicle: saline with Tween-80): 28 % of control | T/C (dose: 50.0 mg/kg/injection, schedule: Q07DX003 (ip), vehicle: saline): 67 % of control | T/C (dose: 80.0 mg/kg/injection, schedule: Q07DX002 (ip), vehicle: distilled water + Tween-80): 7 % of control | T/C (dose: 100.0 mg/kg/injection, schedule: Q07DX002 (ip), vehicle: Klucel (hydroxypropylcellulose) (HPC)): 12 % of control and 25 % of control | T/C (dose: 100.0 mg/kg/injection, schedule: Q07DX003 (ip), vehicle: Klucel (hydroxypropylcellulose) (HPC)): 12 % of control and 20 % of control | T/C (dose: 100.0 mg/kg/injection, schedule: Q07DX003 (ip), vehicle: saline with Tween-80): 38 % of control | T/C (dose: 100.0 mg/kg/injection, schedule: Q07DX003 (ip), vehicle: saline): 33 % of control | T/C (dose: 200.0 mg/kg/injection, schedule: Q07DX003 (ip), vehicle: saline with Tween-80): 1 % of control | T/C (dose: 200.0 mg/kg/injection, schedule: Q07DX003 (ip), vehicle: saline): 2 % of control

O=C[C@@H](CO)O[C@H](C=O)n1cnc2c(=O)[nH]cnc21
T/C (dose: 18.7 mg/kg/injection, schedule: Q07DX002 (ip), vehicle: saline): 168 % of control | T/C (dose: 37.5 mg/kg/injection, schedule: Q07DX002 (ip), vehicle: saline): 105 % of control | T/C (dose: 75.0 mg/kg/injection, schedule: Q07DX002 (ip), vehicle: saline): 121 % of control | T/C (dose: 150.0 mg/kg/injection, schedule: Q07DX002 (ip), vehicle: saline): 100 % of control | T/C (dose: 300.0 mg/kg/injection, schedule: Q07DX002 (ip), vehicle: saline): 120 % of control | T/C (dose: 600.0 mg/kg/injection, schedule: Q07DX002 (ip), vehicle: saline): 86 % of control

CC(=O)OCc1cc(=O)n(C)c2c3c4c(cc12)c(C)cc(=O)n4CO3
T/C (dose: 12.5 mg/kg/injection, schedule: Q07DX003 (ip), vehicle: Klucel (hydroxypropylcellulose) (HPC)): 121 % of control and 106 % of control | T/C (dose: 25.0 mg/kg/injection, schedule: Q07DX003 (ip), vehicle: Klucel (hydroxypropylcellulose) (HPC)): 108 % of control | T/C [1]: 83 % of control | T/C (dose: 200.0 mg/kg/injection, schedule: Q07DX003 (ip), vehicle: Klucel (hydroxypropylcellulose) (HPC)): 94 % of control

CC[N+](CC)(CC)CC
T/C (dose: 1.56 mg/kg/injection, schedule: Q07DX002 (ip), vehicle: saline with Tween-80): 96 % of control | T/C (dose: 3.12 mg/kg/injection, schedule: Q07DX002 (ip), vehicle: saline with Tween-80): 119 % of control | T/C (dose: 6.25 mg/kg/injection, schedule: Q07DX002 (ip), vehicle: saline with Tween-80): 86 % of control | T/C (dose: 12.5 mg/kg/injection, schedule: Q07DX002 (ip), vehicle: saline with Tween-80): 59 % of control

CC1=CC2OC3C(OC(=O)c4ccccc4)C(OC(=O)c4ccccc4)C(C)(C2(COC(=O)c2ccccc2)CC1)C31CO1 (stereo not drawn)
T/C (dose: 3.0 mg/kg/injection, schedule: Q07DX002 (ip), vehicle: saline with Tween-80): 166 % of control | T/C (dose: 6.0 mg/kg/injection, schedule: Q07DX003 (ip), vehicle: saline with Tween-80): 152 % of control | T/C (dose: 12.0 mg/kg/injection, schedule: Q07DX003 (ip), vehicle: saline with Tween-80): 184 % of control

O=C1NCC(Br)C(=O)N1 (stereo not drawn)
T/C (dose: 12.5 mg/kg/injection, schedule: Q07DX002 (ip), vehicle: saline + Tween-80 + alcohol): 97 % of control | T/C (dose: 25.0 mg/kg/injection, schedule: Q07DX002 (ip), vehicle: saline + Tween-80 + alcohol): 83 % of control | T/C (dose: 50.0 mg/kg/injection, schedule: Q07DX002 (ip), vehicle: saline + Tween-80 + alcohol): 99 % of control | T/C (dose: 100.0 mg/kg/injection, schedule: Q07DX002 (ip), vehicle: saline + Tween-80 + alcohol): 76 % of control | T/C (dose: 100.0 mg/kg/injection, schedule: Q07DX002 (ip), vehicle: saline with Tween-80): 157 % of control | T/C (dose: 200.0 mg/kg/injection, schedule: Q07DX002 (ip), vehicle: saline + Tween-80 + alcohol): 84 % of control | T/C (dose: 400.0 mg/kg/injection, schedule: Q07DX002 (ip), vehicle: saline + Tween-80 + alcohol): 63 % of control

[Cl][Mn][Cl]
T/C (dose: 3.0 mg/kg/injection, schedule: Q07DX002 (ip), vehicle: saline): 118 % of control | T/C (dose: 4.0 mg/kg/injection, schedule: Q07DX002 (ip), vehicle: saline): 97 % of control | T/C (dose: 6.0 mg/kg/injection, schedule: Q07DX002 (ip), vehicle: saline): 92 % of control | T/C (dose: 8.0 mg/kg/injection, schedule: Q07DX002 (ip), vehicle: saline): 81 % of control | T/C (dose: 12.0 mg/kg/injection, schedule: Q07DX002 (ip), vehicle: saline): 119 % of control | T/C (dose: 32.0 mg/kg/injection, schedule: Q07DX002 (ip), vehicle: saline): 95 % of control and 96 % of control | T/C (dose: 48.0 mg/kg/injection, schedule: Q07DX002 (ip), vehicle: saline): 119 % of control | T/C (dose: 64.0 mg/kg/injection, schedule: Q07DX002 (ip), vehicle: saline): 75 % of control | T/C (dose: 96.0 mg/kg/injection, schedule: Q07DX002 (ip), vehicle: saline): 115 % of control | T/C (dose: 128.0 mg/kg/injection, schedule: Q07DX002 (ip), vehicle: saline): 78 % of control

CC(C)CC(NC(=O)CF)C(=O)O (stereo not drawn)
T/C (dose: 0.62 mg/kg/injection, schedule: Q07DX002 (ip), vehicle: saline): 46 % of control | T/C (dose: 0.63 mg/kg/injection, schedule: Q07DX002 (ip), vehicle: saline): 75 % of control | T/C (dose: 1.25 mg/kg/injection, schedule: Q07DX002 (ip), vehicle: saline): 94 % of control and 96 % of control | T/C (dose: 5.0 mg/kg/injection, schedule: Q07DX002 (ip), vehicle: saline): 74 % of control and 76 % of control | T/C (dose: 10.0 mg/kg/injection, schedule: Q07DX002 (ip), vehicle: saline): 71 % of control and 92 % of control

C[N+](C)(C)c1ncnc2nc[nH]c12
T/C (dose: 25.0 mg/kg/injection, schedule: Q07DX002 (ip), vehicle: saline): 83 % of control | T/C (dose: 50.0 mg/kg/injection, schedule: Q07DX002 (ip), vehicle: saline): 77 % of control and 98 % of control | T/C (dose: 100.0 mg/kg/injection, schedule: Q07DX002 (ip), vehicle: saline): 96 % of control and 100 % of control | T/C (dose: 200.0 mg/kg/injection, schedule: Q07DX002 (ip), vehicle: saline): 75 % of control and 85 % of control

NC(CSC(c1ccccc1)(c1ccccc1)c1ccccc1)C(=O)O (stereo not drawn)
T/C (dose: 8.0 mg/kg/injection, schedule: Q07DX003 (ip), vehicle: Klucel (hydroxypropylcellulose) (HPC)): 83 % of control | T/C (dose: 8.0 mg/kg/injection, schedule: Q07DX003 (ip), vehicle: saline with Tween-80): 78 % of control | T/C (dose: 16.0 mg/kg/injection, schedule: Q07DX003 (ip), vehicle: Klucel (hydroxypropylcellulose) (HPC)): 53 % of control | T/C (dose: 16.0 mg/kg/injection, schedule: Q07DX003 (ip), vehicle: saline with Tween-80): 61 % of control | T/C (dose: 32.0 mg/kg/injection, schedule: Q07DX003 (ip), vehicle: Klucel (hydroxypropylcellulose) (HPC)): 64 % of control | T/C (dose: 32.0 mg/kg/injection, schedule: Q07DX003 (ip), vehicle: saline with Tween-80): 57 % of control | T/C (dose: 64.0 mg/kg/injection, schedule: Q07DX003 (ip), vehicle: Klucel (hydroxypropylcellulose) (HPC)): 46 % of control | T/C (dose: 64.0 mg/kg/injection, schedule: Q07DX003 (ip), vehicle: saline with Tween-80): 75 % of control | T/C (dose: 128.0 mg/kg/injection, schedule: Q07DX003 (ip), vehicle: Klucel (hydroxypropylcellulose) (HPC)): 34 % of control | T/C (dose: 128.0 mg/kg/injection, schedule: Q07DX003 (ip), vehicle: saline with Tween-80): 9 % of control | T/C (dose: 256.0 mg/kg/injection, schedule: Q07DX003 (ip), vehicle: Klucel (hydroxypropylcellulose) (HPC)): 17 % of control
